{
  "source": "patent US20220031825A1",
  "about": "“IMM[…] AND VACCINE COMPOSITION INCLUDING STING AGONIST” (priority 2018, published 2022)",
  "key": {"spleen and lung cells [1]": {"test_system": "spleen and lung cells", "experiment": "Antigen-specific multifunctional T cells after ESAT-6 stimulation (flow cytometry)", "conditions": "mouse, in vivo"}, "spleen and lung cells [2]": {"test_system": "spleen and lung cells", "experiment": "Type and number of memory T cells in spleen and lung (flow cytometry)", "type": "in vivo, mouse", "conditions": "both spleen and lung cells of immunized mice; compared with MPL as adjuvant; FIG. 1D", "description": "In general, when infected with Mycobacterium tuberculosis, Mycobacterium tuberculosis antigen-specific T cells replicate and differentiate to become effector T cells. When the immune response disappears, most of these effector T cells die, and some form long-lasting memory T cells. It is known that the memory T cells thus formed play a critical role in the formation of a rapid acquired defense immunity and maintenance of the memorization of T cells. […] For the experiment, the spleen and lung cells of the mouse obtained in the same manner as in Example 1.2 were washed twice with PBS and then centrifuged. The centrifuged cells were treated with anti-CD3-BV421 (BD Bioscience), anti-CD4-PerCP-Cy5.5 (BD Bioscience), anti-CD8-APC-Cy7 (BD Bioscience), anti-CD44-PE (Ebioscience), anti-CD62L-FITC (Ebioscience), anti-CD127-APC (Ebioscience), etc. Then, they were reacted at 4° C. for 30 minutes. After the reaction was completed, cells were washed several times with PBS to remove unbound antibody, and then effector T cells (Teff; CD3^+CD4^+CD62L^−CD44+CD127^−), effector/memory T cells (Tem; CD3^+CD4^+CD62L^−CD44^+CD127^+), central memory T cells (Tcm; CD3^+CD4^+CD62L^+CD44^+CD127^+), and naive T cells (Naive; CD3^+CD4^+CD62L^+CD44^−CD127^+) were analyzed by using flow cytometer (FACS verse, BD)."}},
  "data": [
    {"molecule": "monophosphoryl lipid A [MPL]", "values": [
      {"measurement": "T cells secreting all three types of cytokines IFN-γ, TNF-α and IL-2", "setting": "spleen and lung cells [1]", "value": "increased"}
    ]},
    {"molecule": "Nc1nc2c(ncn2[C@@H]2O[C@@H]3COP(=O)(O)O[C@H]4[C@@H](O)[C@H](n5cnc6c(=O)[nH]c(N)nc65)O[C@@H]4COP(=O)(O)O[C@H]3[C@H]2O)c(=O)[nH]1", "note": "[c-di-GMP, cyclic diguanylate]", "values": [
      {"measurement": "effector/memory T of CD4+/CD8+", "setting": "spleen and lung cells [2]", "value": "significant increase"},
      {"measurement": "T cells secreting all three types of cytokines IFN-γ, TNF-α and IL-2", "setting": "spleen and lung cells [1]", "value": "increased"}
    ]}
  ]
}
